{"source": "paper PMC9436819", "about": "(JACC: Basic to Translational Science, 2022)", "key": {"healthy adults [1]": {"system": "healthy adults", "assay": "Overall safety and tolerability (AEs, ECG, vital signs, laboratory tests), all cohorts", "assay_type": "in vivo, human", "procedure": "Safety was assessed by the incidence of adverse events (AEs) and by the incidence of reduced LVEF. Treatment-emergent AEs (TEAEs) were defined as AEs that began or increased after study drug administration. All AEs were coded using the Medical Dictionary for Regulatory Activities, version 21.1, and graded using the National Cancer Institute Common Terminology Criteria for AEs (version 4.03) 5-point severity scale.[18] Each AE was judged as either related or unrelated to the study drug by the treating investigator. Clinical laboratory tests were obtained at regular intervals in all cohorts.\nFor safety monitoring, participants in all cohorts had periodic echocardiograms, which were assessed by a cardiologist. In the SAD and MAD cohorts, echocardiograms were also reviewed by an echocardiography core laboratory for PD assessments, as described in the section on echocardiographic methods. In addition, participants in all cohorts were monitored with continuous 12-lead ECG recording using Holter monitors. For safety monitoring, a single 12-lead ECG was extracted at screening, predose, and periodically throughout follow-up and interpreted by the investigator. In the SAD, MAD, and CYP2D6-PM cohorts, cardiodynamic ECGs (triplicate 10-second, 12-lead ECG recordings) were obtained before the corresponding PK blood sample (see the Supplemental Appendix for full details on blood sampling), and ECG intervals were quantitated by qualified readers."}, "rat and dog": {"system": "rat and dog", "conditions": "cited from earlier work"}, "healthy adults [2]": {"system": "healthy adults", "assay": "Echocardiography (core laboratory) pharmacodynamics, SAD cohorts", "assay_type": "in vivo, human", "procedure": "For PD assessments of LVEF, echocardiograms for the SAD and MAD cohorts were interpreted by the echocardiography core laboratory and used for all data analysis and dose-level review decisions, and immediate local interpretation of the echocardiograms was performed for safety monitoring. […] Echocardiograms on day 3 (48 hours after dosing) were obtained only if the 24-hour LVEF had not returned to near or above baseline, as determined by the investigator. In the MAD cohorts, echocardiograms were obtained on day -1; predose on day 1; at 1.5 hours postdose on days 2, 4, and 9; and at 1.5, 24, and 72 hours postdose on day 14 (for the 5-mg and 10-mg cohorts) or on day 17 (for the 7.5-mg cohort). Echocardiograms were obtained 3 days after the last dose (on day 17 or 20) only if the participant’s prior LVEF was not near or above baseline, as determined by the investigator.\nUsing echocardiography instrumentation certified for clinical use, echocardiographic images were obtained from standard views based on American Society of Echocardiography recommendations for chamber quantification.[19] To obtain the LVEF, the endocardial borders of 3 different cardiac cycles were traced at both end diastole and end systole from the apical 4- and 2-chamber views and LV end-diastolic volume (LVEDV) and LV end-systolic volume (LVESV), calculated using the Simpson’s method of discs algorithm. Ejection fraction was calculated in the standard manner: LVEF = (LVEDV − LVESV)/LVEDV. The intraobserver variability (coefficient of variation) for LVEF was 8%.\nAll participants who received ≥1 dose of the study drug and had ≥1 predose and ≥1 postdose echocardiographic measurements were included in the PD analysis set. […] Descriptive statistics of the echocardiographic parameters were generated using SAS, version 9.3 or higher. Dose-response analysis was performed using analysis of covariance to identify the least-squares mean difference (aficamten minus placebo), as described in the Supplemental Appendix. Analyses of concentration “bin” and exposure-response were also performed using analysis of covariance, as described in the Supplemental Appendix. SAS PROC MIXED was used for all comparative analyses.\nStatistical A nalysis of P harmacodynamic (PD) P aram eters\nTo analyze the impact of drug dose on echocardiographic parameters in the SAD and MAD\ncohorts, an inferential analysis was conducted on t he PD analysis set using linear mixed models\nfor rep eated -measur es an alysis of covarian ce ( AN COVA). The A NCOVA used baseline valu e as\na covariate, included treatment, time-point, and time-point-by- treatment interaction as fixed\neffects, and ch ange f rom baseline as the d ependent variable. Th e unstructur ed varian ce-\ncovarian ce structu re w as used, and the model acco unted for the time- point r epeated m easur es.\nThe ANCOVA analysis was conducted separately for each study part and f or each PD p aram eter .\nThe least-squares means, the difference in least squares means (active minus placebo), and the\nassociated 2-sided 95% CIs were presented for each comparison.\nConcentration bin analysis\nAn additional inferential analysis was performed i n the SAD and MAD cohorts , to evaluate the\nanalysis set. A concentrat ion bin ANCOVA was conducted using linear mi xed models for\nrepeat ed-measures an aly ses with concentr ation bin group as a fix ed ef fect, baseline PD\nparameters as a covari ate, change f rom baseline as the dependent v ariable, and a random\nintercept to adjust for the repeat ed measures. The unstructured variance-co variance structur e was\nused.Plasma concentr ations of aficamten wer e paired with coincident PD parameters. The\nANCOVA compared the change in PD parameters between each bin versus the pooled placebo\ngroup. The least-squ ares means, the differen ce in l east squares m eans (bin group minus placebo),\nand the associat ed 2-sided 95% CIs were pres ented for each comparison. The ANCOVA analysis"}, "[3]": {"conditions": "SAD 50 mg (n = 11), […] postdose"}}, "note": "Several values for one entry are separate records, joined by “and”; a condition that tells them apart may be missing. Equal values may be shown once. Entries after “also recorded” stand apart in the source; their conditions may differ."}
{"smiles": "CCc1nc(-c2ccc3c(c2)CC[C@H]3NC(=O)c2cnn(C)c2)no1", "note": "[Aficamten]", "values": [{"measurement": "Discontinuation of the study because of AEs", "setting": "healthy adults [1]; all cohorts", "result": "no participants discontinued"}, {"measurement": "Serious AEs", "setting": "healthy adults [1]; all cohorts", "result": "no serious AEs; also recorded: without serious AEs"}, {"measurement": "Vital signs at postdose timepoints", "setting": "healthy adults [1]; all cohorts", "result": "within normal limits"}, {"measurement": "QTcF at baseline or any assessment during the dosing interval", "setting": "healthy adults [1]; all cohorts, exception of 2 individuals with baseline QTcF ≥440 ms whose QTcF increased by 3 and 13 ms", "result": "≤ 450", "unit": "ms"}, {"measurement": "Increase in QTcF interval", "setting": "healthy adults [1]; all cohorts, only exception was 1 participant in the SAD placebo group", "result": "≤ 30", "unit": "ms"}, {"measurement": "Serum chemistry, hematology, or urinalysis findings", "setting": "healthy adults [1]; during the study", "result": "No clinically significant"}, {"measurement": "Effect on the QT interval (cardiodynamic assessments)", "setting": "healthy adults [1]; following single or multiple doses", "result": "no evidence of an effect"}, {"measurement": "Tolerability", "setting": "healthy adults [1]; single doses of ≤50 mg or daily dosing of ≤10 mg for 14 or 17 days", "result": "safe and well tolerated"}, {"measurement": "Severity of observed TEAEs", "setting": "healthy adults [1]; single-dose and multiple-dose administration", "result": "generally mild (grade 1)"}, {"measurement": "Exposure-response relationship shallower than that of mavacamten", "setting": "rat and dog; comparison in rats and dogs", "result": "roughly 3 fold"}, {"measurement": "Ventricular contractility", "setting": "rat and dog; rat and dog", "result": "reduces ventricular contractility in a dose- and exposure-dependent manner"}, {"measurement": "Participants with absolute reduction in LVEF of ≥5% from baseline", "setting": "healthy adults [2]; SAD 1 mg", "result": "no participants"}, {"measurement": "Participants with absolute reduction in LVEF of ≥5% from baseline", "setting": "healthy adults [2]; SAD 3 mg, 1 of 6", "result": 17, "unit": "%"}, {"measurement": "Participants with absolute reduction in LVEF of ≥5% from baseline", "setting": "healthy adults [2]; SAD 10 mg", "result": "no participants"}, {"measurement": "Participants with absolute reduction in LVEF of ≥5% from baseline", "setting": "healthy adults [2]; SAD 25 mg", "result": "no participants"}, {"measurement": "Participants with absolute reduction in LVEF of ≥10%", "setting": "healthy adults [2]; SAD 40 mg, 1 of 6", "result": 17, "unit": "%"}, {"measurement": "Participants with absolute reduction in LVEF of ≥5% from baseline", "setting": "healthy adults [2]; SAD 40 mg, 2 of 6", "result": 33, "unit": "%"}, {"measurement": "A (peak A wave velocity), mean", "setting": "healthy adults [2]; [3]", "result": 54.5, "unit": "cm/s"}, {"measurement": "A (peak A wave velocity), mean change from baseline", "setting": "healthy adults [2]; [3]", "result": 2.5, "unit": "cm/s"}, {"measurement": "E (peak E wave velocity), mean", "setting": "healthy adults [2]; [3]", "result": 64.0, "unit": "cm/s"}, {"measurement": "E (peak E wave velocity), mean change from baseline", "setting": "healthy adults [2]; [3]", "result": -2.7, "unit": "cm/s"}, {"measurement": "Heart rate, mean", "setting": "healthy adults [2]; [3]", "result": 62.3, "unit": "bpm"}, {"measurement": "Heart rate, mean change from baseline", "setting": "healthy adults [2]; [3]", "result": 0.5, "unit": "bpm"}, {"measurement": "IVCT, mean", "setting": "healthy adults [2]; [3]", "result": 42.6, "unit": "ms"}, {"measurement": "IVCT, mean change from baseline", "setting": "healthy adults [2]; [3]", "result": 0.4, "unit": "ms"}, {"measurement": "IVRT, mean", "setting": "healthy adults [2]; [3]", "result": 69.3, "unit": "ms"}, {"measurement": "IVRT, mean change from baseline", "setting": "healthy adults [2]; [3]", "result": 0.5, "unit": "ms"}, {"measurement": "LAV, mean", "setting": "healthy adults [2]; [3]", "result": 35.7, "unit": "mL"}, {"measurement": "LAV, mean change from baseline", "setting": "healthy adults [2]; [3]", "result": 0.0, "unit": "mL"}, {"measurement": "LV CO, mean", "setting": "healthy adults [2]; [3]", "result": 3240, "unit": "mL"}, {"measurement": "LV CO, mean change from baseline", "setting": "healthy adults [2]; [3]", "result": -346, "unit": "mL"}, {"measurement": "LV EDV, mean", "setting": "healthy adults [2]; [3]", "result": 99.8, "unit": "mL"}, {"measurement": "LV EDV, mean change from baseline", "setting": "healthy adults [2]; [3]", "result": 6.6, "unit": "mL"}, {"measurement": "LV ESV, mean", "setting": "healthy adults [2]; [3]", "result": 39.7, "unit": "mL"}, {"measurement": "LV ESV, mean change from baseline", "setting": "healthy adults [2]; [3]", "result": 8.1, "unit": "mL"}, {"measurement": "LV ET, mean", "setting": "healthy adults [2]; [3]", "result": 328, "unit": "ms"}, {"measurement": "LV SV, mean", "setting": "healthy adults [2]; [3]", "result": 52.6, "unit": "mL"}, {"measurement": "LV SV, mean change from baseline", "setting": "healthy adults [2]; [3]", "result": -6.2, "unit": "mL"}, {"measurement": "LVEF, mean", "setting": "healthy adults [2]; [3]", "result": 60.5, "unit": "%"}, {"measurement": "LVEF, mean change from baseline", "setting": "healthy adults [2]; [3]", "result": -5.8, "unit": "%"}, {"measurement": "e' lateral, mean", "setting": "healthy adults [2]; [3]", "result": 10.2, "unit": "cm/s"}, {"measurement": "e' lateral, mean change from baseline", "setting": "healthy adults [2]; [3]", "result": -1.3, "unit": "cm/s"}, {"measurement": "Participants with reduction in LVEF to <50%", "setting": "healthy adults [2]; SAD 50 mg, 2 of 11, core laboratory", "result": 18, "unit": "%"}, {"measurement": "Participants with absolute reduction in LVEF of ≥5% from baseline", "setting": "healthy adults [2]; SAD 50 mg, 7 of 11", "result": 64, "unit": "%"}, {"measurement": "Mean maximum reduction in LVEF from baseline", "setting": "healthy adults [2]; SAD 50 mg, […] postdose", "result": 5.8, "unit": "%"}, {"measurement": "Reduction in LVEF, placebo corrected least-squares mean difference", "setting": "healthy adults [2]; SAD 50 mg, […] postdose", "result": 5.5, "unit": "%"}, {"measurement": "LVEF of the individual participants with LVEF <50%", "setting": "healthy adults [2]; SAD 50 mg, per core laboratory assessment", "result": "48.2% and 45.5%"}, {"measurement": "Participants with absolute reduction in LVEF of ≥5% from baseline", "setting": "healthy adults [2]; SAD 75 mg, 1 of 1", "result": 100, "unit": "%"}, {"measurement": "Participants with reduction in LVEF to <50%", "setting": "healthy adults [2]; SAD 75 mg, 1 of 1, core laboratory", "result": 100, "unit": "%"}, {"measurement": "Participants with absolute reduction in LVEF of ≥10%", "setting": "healthy adults [2]; SAD 75 mg, 1 participant", "result": 100, "unit": "%"}, {"measurement": "LVEF of the participant (only participant with LVEF <45%)", "setting": "healthy adults [2]; SAD 75 mg, core laboratory", "result": "< 45", "unit": "%"}, {"measurement": "Relationship of LVEF to plasma concentration", "setting": "healthy adults [2]; SAD cohorts, highest concentration bin 122-524 ng/mL P < 0.001, concentration-slope analysis P = 0.003", "result": "statistically significant decrease"}, {"measurement": "Time for reversal of decreases in LVEF to <50%", "setting": "healthy adults [2]; following single doses", "result": "≤ 6", "unit": "h"}, {"measurement": "Time for LVEF to return to baseline", "setting": "healthy adults [2]; participants whose LVEFs fell below 50%", "result": "≤ 24", "unit": "h"}, {"measurement": "Time after dosing at which LVEF <50% was noted", "setting": "healthy adults [2]; single 50 or 75 mg", "result": "approximately 1.5 hours"}]}
